Laboratory results: patent US20020062499A1, “Methods for translational repression of gene expression in plants” (priority 2000, published 2002)

Columns and labels:
transgenic corn lines = assay: Field test of MS2 translation repression system transgenic corn lines; type: in vivo; settings: 32 oz/acre Roundup® at the 6-8 leaf stage; transgenic TRS corn lines
Protocol: Field tests are conducted to evaluate the vegetative tolerance and male sterility of transgenic corn lines selected from the greenhouse tests. Lines for the field trial are selected based on previous scores showing good to excellent vegetative tolerance, very high or complete male sterility induced by glyphosate, and available seed supply. The pedigree of plants in the field test is either [(Ro×B73)×B73] or (B73×Ro). Based on these pedigrees, it is expected that half of the plants in a plot would be killed by glyphosate (formulated Roundup®) application, because they would not contain the transgene.
The field test is set up in two blocks, each block containing four groups of plots that would receive a single spray treatment. The treatments are (1) no spray, (2) 32 oz/acre Roundup® at the 1-2 leaf stage, (3) 32 oz/acre Roundup® at the 4-5 leaf stage, and (4) 32 oz/acre Roundup® at the 6-8 leaf stage. Plants are scored for male fertility when they began to flower, and scoring is repeated every 1-2 days for about eight days. Observations included the length of time between emergence of the tassel from the first plants and from the last plant in each plot. A sample of the anthers is collected from each plant, and the viability of pollen is judged with the aid of a hand-held microscope.

[1] = tested on: non-transgenic parental control plant (M202); assay: Glyphosate treatment of non-transgenic parental control rice; type: in vivo; settings: 64 oz./A glyphosate
Excerpt: The anther-specific promoter P-Ta.1674-19 is amplified from wheat genomic DNA by Genome Walker™ as a HindIII/BglII fragment, digested with these two enzymes, and the fragment ligated into pMON42180 (FIG. 3) digested with the same enzymes, resulting in pMON52000. The plant expression vector pMON52001 (FIG. 27) is constructed by taking the Not I fragment containing of P-Ta. 1674-19/I-Zm.Hsp70/MS2. CP:en/T-AGRTU.nos from pMON52000 and ligating into pMON42916 (FIG. 7) digested with Not I. pMON42438 (FIG. 28) and pMON42439 (FIG. 29) are constructed by replacing the wheat P-Ta. 1674-19 promoter element of pMON52001 with corn anther-specific promoters P-700353038 and P-70053844, respectively. pMON42945 (FIG. 30) is constructed by ligating the Not I fragment consisting of P-L1482830/I-Zm.Hsp70/MS2.CP:en/T-AGRTU.nos into pMON42916. These promoter elements are isolated from wheat and corn anther DNA libraries by Genome Walker™. Rice variety M202 is transformed by Agrobacterium-mediated transformation. […] Vegetative tolerance to the glyphosate is visually evaluated 21 DAT (day after treatment) based on a scale of 0 to 5 (as discussed above). […] Male sterility is scored at maturity by counting the number of empty florets and dividing by the total number of florets (filled plus empty) in each panicle.

O=C(O)CNCP(=O)(O)O [glyphosate, N-phosphonomethylglycine]
male sterility under field conditions (transgenic corn lines): very effective for producing male sterility | effect of the glyphosate treatment on the non-transgenic parental control plant [1]: killed
